Laboratory results reported in publication PMC7558399, “In Vitro Selective Growth-Inhibitory Activities of Phytochemicals, Synthetic Phytochemical Analogs, and Antibiotics against Diarrheagenic/Probiotic Bacteria and Cancer/Normal Intestinal Cells” (Pharmaceuticals, 2020).

Tests used:
Type in all cases: cell-based
[1] = system: Bacillus cereus (ATCC 14579); assay: Broth microdilution MIC, B. cereus; settings: ATCC14579, growth inhibited by ≥80%, median/mode, read-out: MIC
[2] = system: Clostridium difficile (DSMZ 12056); assay: microbe, parasite or virus in culture; settings: Clostridioides difficile, DSMZ12056
[3] = system: Clostridium perfringens (DSMZ 11778); assay: microbe, parasite or virus in culture; settings: DSMZ11778
[4] = system: Enterococcus faecalis (ATCC 29212); assay: Broth microdilution MIC, E. faecalis; settings: ATCC29212, growth inhibited by ≥80%, read-out: MIC
[5] = system: Escherichia coli (ATCC 25922); assay: Broth microdilution MIC, E. coli; settings: ATCC25922, growth inhibited by ≥80%, read-out: MIC
[6] = system: E. coli 0175:H7 (NCTC 12900); assay: microbe, parasite or virus in culture; settings: Escherichia coli, NCTC12900
[7] = system: Listeria monocytogenes (ATCC 7644); assay: Broth microdilution MIC, L. monocytogenes; settings: ATCC7644, growth inhibited by ≥80%, read-out: MIC
[8] = system: Shigella flexneri (ATCC 12022); assay: microbe, parasite or virus in culture; settings: ATCC12022
[9] = system: Salmonella enterica ssp. enterica serovar Enteritidis (ATCC 13076); assay: Broth microdilution MIC, Salmonella Enteritidis; settings: Salmonella Enteritidis, growth inhibited by ≥80%, read-out: MIC
[10] = system: S. enterica ssp. enterica serovar Typhimurium (ATCC 14028); assay: Broth microdilution MIC, Salmonella Typhimurium; settings: Salmonella Typhimurium, growth inhibited by ≥80%, read-out: MIC
[11] = system: Vibrio parahaemolyticus (ATCC 17802); assay: Broth microdilution MIC, V. parahaemolyticus; settings: ATCC17802, growth inhibited by ≥80%, read-out: MIC
[12] = system: Yersinia enterocolitica (ATCC 9610); assay: Broth microdilution MIC, Y. enterocolitica; settings: ATCC9610, growth inhibited by ≥80%, read-out: MIC
[13] = system: diarrheagenic bacteria (12 strains); assay: microbe, parasite or virus in culture; settings: mean of 12 strains; >512 replaced with 1024; read-out: x¯ -DB ± SD: mean MIC for diarrheagenic bacteria
[14] = system: Bacteroides fragilis (ATCC 25285); assay: Broth microdilution MIC, B. fragilis; settings: ATCC25285, growth inhibited by ≥80%, read-out: MIC
[15] = system: Bifidobacterium adolescentis (DSMZ 20087); assay: Broth microdilution MIC, B. adolescentis; settings: DSMZ20087, growth inhibited by ≥80%, read-out: MIC
[16] = system: Bifidobacterium animalis spp. lactis (DSMZ 10140); assay: Broth microdilution MIC, B. animalis spp. lactis; settings: DSMZ10140; Bifidobacterium animalis spp. lactis; growth inhibited by ≥80%; read-out: MIC
[17] = system: Bifidobacterium bifidum (ATCC 29521); assay: Broth microdilution MIC, B. bifidum; settings: ATCC29521, growth inhibited by ≥80%, read-out: MIC
[18] = system: Bifidobacterium breve (ATCC 15700); assay: Broth microdilution MIC, B. breve; settings: ATCC15700, growth inhibited by ≥80%, read-out: MIC
[19] = system: Bifidobacterium longum ssp. longum (DSMZ 20219); assay: Broth microdilution MIC, B. longum ssp. longum; settings: DSMZ20219; Bifidobacterium longum ssp. longum; growth inhibited by ≥80%; read-out: MIC
[20] = system: Lactobacillus casei (DSMZ 20011); assay: Broth microdilution MIC, L. casei; settings: Lacticaseibacillus casei, DSMZ20011; Lactobacillus casei; growth inhibited by ≥80%; read-out: MIC
[21] = system: Lactobacillus reuteri (CCM 3625); assay: Broth microdilution MIC, L. reuteri; settings: Limosilactobacillus reuteri, CCM3625; Lactobacillus reuteri; growth inhibited by ≥80%; read-out: MIC
[22] = system: Lactobacillus rhamnosus (CCM 7091); assay: Broth microdilution MIC, L. rhamnosus; settings: Lacticaseibacillus rhamnosus, CCM7091; Lactobacillus rhamnosus; growth inhibited by ≥80%; read-out: MIC
[23] = system: probiotic bacteria (9 strains); assay: Broth microdilution MIC, probiotic bacteria as a group (mean or range over strains); settings: mean of 9 strains; >512 replaced with 1024; read-out: x¯ -PB ± SD: mean MIC for probiotic bacteria
[24] = system: HT29 (ATCC HTB 38) intestinal cancer cells; assay: MTT cytotoxicity assay, HT29; settings: Homo sapiens, HT-29, HT29, MTT, 72 h
[25] = system: Caco-2 (ATCC HTB 37) intestinal cancer cells; assay: MTT cytotoxicity assay, Caco-2; settings: Homo sapiens, Caco-2, MTT, 72 h
[26] = system: intestinal cancer cells (HT29 and Caco-2); assay: MTT cytotoxicity assay, mean for intestinal cancer cells
[27] = system: FHs 74 Int (ATCC CCL 241) intestinal normal cells; assay: MTT cytotoxicity assay, FHs 74 Int; settings: FHs74Int, 72 h, FHs 74 Int (intestinal normal cells), MTT
[28] = system: 21 strains (diarrheagenic and probiotic bacteria); assay: organism not typed; settings: any of the 21 strains
[29] = read-out: IC80 ± SD (80% inhibitory concentration of proliferation)

For `COc1ccc2cc3[n+](cc2c1OC)CCc1cc2c(cc1-3)OCO2` [BR, berberine chloride], the MIC [1] was greater than 512 µg/mL, the MIC [2] was greater than 512 µg/mL and the MIC [3] was 256 µg/mL. It also gave an MIC [4] greater than 512 µg/mL, an MIC [5] greater than 512 µg/mL and an MIC [6] greater than 512 µg/mL. The MIC [7] was greater than 512 µg/mL, the MIC [8] was greater than 512 µg/mL and the MIC [9] was greater than 512 µg/mL. It also gave an MIC [10] of 512 µg/mL, an MIC [11] of 512 µg/mL and an MIC [12] greater than 512 µg/mL. For the same compound, the MIC [13] was 875 ± 256 µg/mL, the MIC [14] was greater than 512 µg/mL and the MIC [15] was 128 µg/mL. It also gave an MIC [16] of 32 µg/mL, an MIC [17] of 64 µg/mL and an MIC [18] of 64 µg/mL. The MIC [19] was 32 µg/mL, the MIC [20] was 64 µg/mL and the MIC [21] was greater than 512 µg/mL. For the same compound, the MIC [22] was 64 µg/mL, the MIC [23] was 277 ± 400 µg/mL and the IC50 ([24]; read-out: IC50 ± SD) was 5 ± 1 µg/mL. It also gave an IC80 [24, 29] of 42.1 ± 7.3 µg/mL, an IC50 ([25]; read-out: IC50 ± SD) of 19.4 ± 2.9 µg/mL and an IC80 [25, 29] of 78.9 ± 0.3 µg/mL. The IC50 ([26]; mean of HT29 and Caco-2, >512 replaced with 1024, read-out: x¯ -CC ± SD: mean IC50 for intestinal cancer cells) was 12.2 ± 7 µg/mL, the IC80 ([26]; read-out: x¯ -CC ± SD: mean IC80 for intestinal cancer cells) was 60.5 ± 18.4 µg/mL and the IC50 ([27]; read-out: IC50 ± SD) was 1 ± 0.1 µg/mL. For the same compound, the IC80 [27, 29] was 26.4 ± 0.8 µg/mL and the MIC [28] was no less than 32 µg/mL.
